Data set [1] in a line: Toxicity in mouse implanted in human MV4-11 cells assessed as animal death at 10 to 30 mg/kg, ip administered daily for 17 days. It is filed as organism-based. As to conditions: in vivo, 408 h, dose 10-30 mg/kg, time 17 day.
Data set [2] has as its target T1, Histone deacetylase 11 (Homo sapiens, UniProt Q96DB2).
T1 sequence (Q96DB2 whole entry): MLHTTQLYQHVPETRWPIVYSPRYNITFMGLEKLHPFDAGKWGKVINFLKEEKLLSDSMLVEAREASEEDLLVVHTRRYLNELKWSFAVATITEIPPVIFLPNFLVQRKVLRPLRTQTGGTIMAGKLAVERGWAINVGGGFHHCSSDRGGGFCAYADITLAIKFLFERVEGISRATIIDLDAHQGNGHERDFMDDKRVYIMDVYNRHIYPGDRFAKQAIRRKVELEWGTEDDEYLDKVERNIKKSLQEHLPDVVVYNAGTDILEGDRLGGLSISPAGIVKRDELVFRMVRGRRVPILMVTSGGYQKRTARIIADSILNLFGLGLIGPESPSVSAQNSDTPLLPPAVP
The experiment in a line: Inhibition of HDAC11 (unknown origin) by fluorescence based assay.

The target of data set [3] is Histone deacetylase 2 (Homo sapiens, UniProt Q92769). The experiment in a line: Inhibition of HDAC2 (unknown origin) by fluorescence based assay.
In data set [4] the target is T2, Histone deacetylase 8 (Homo sapiens, UniProt Q9BY41).
T2 sequence (Q9BY41 whole entry): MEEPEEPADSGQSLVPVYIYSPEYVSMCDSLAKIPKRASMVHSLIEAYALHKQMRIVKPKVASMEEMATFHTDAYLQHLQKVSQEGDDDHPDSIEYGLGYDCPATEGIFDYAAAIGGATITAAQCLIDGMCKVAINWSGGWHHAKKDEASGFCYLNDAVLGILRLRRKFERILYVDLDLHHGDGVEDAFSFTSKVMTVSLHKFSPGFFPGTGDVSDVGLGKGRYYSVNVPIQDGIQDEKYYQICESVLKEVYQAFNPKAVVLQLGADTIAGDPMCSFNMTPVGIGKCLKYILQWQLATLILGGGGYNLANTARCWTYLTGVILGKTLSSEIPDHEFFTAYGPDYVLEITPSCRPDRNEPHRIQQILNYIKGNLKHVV
The experiment in a line: Inhibition of HDAC8 (unknown origin) by fluorescence based assay.

In data set [5] the test system is MV4-11. The experiment in a line: Induction of apoptosis in human MV4-11 cells assessed as viable cells at 200 nmol/L incubated for 72 hrs by Annexin V/PI staining based flow cytometry analysis (reference value: 90.23%). In kind it is functional. As to conditions: Homo sapiens, MV4-11, read-out: Activity. (In general: Flow cytometry measures light scatter and fluorescence of single cells or particles in a stream.)

The target in data set [6] is Histone-lysine N-methyltransferase 2A/WDR5 (Homo sapiens, UniProt P61964). The experiment in a line: Inhibition of MLL1/WDR5 (unknown origin) protein-protein interaction incubated for 2 hrs by FP analysis. It is filed as protein assay.
Data set [7] deals with MV4-11. The experiment in a line: Induction of apoptosis in human MV4-11 cells assessed as necrotic cells at 50 nmol/L incubated for 72 hrs by Annexin V/PI staining based flow cytometry analysis (reference value: 0.46%). In kind it is functional.
Data set [8] relates to MV4-11. The experiment in a line: Induction of apoptosis in human MV4-11 cells assessed as early apoptotic cells at 200 nmol/L incubated for 72 hrs by Annexin V/PI staining based flow cytometry analysis (reference value: 4.17 %). In kind it is functional.
Data set [9] can be described thus: Toxicity in mouse implanted in human MV4-11 cells assessed as kidney damage at 10 to 30 mg/kg, ip administered daily for 17 days by H and E staining based analysis. It is filed as organism-based. As to conditions: in vivo, 408 h, dose 10-30 mg/kg, time 17 day.
The test system of data set [10] is MV4-11. The experiment in a line: Induction of apoptosis in human MV4-11 cells assessed as necrotic cells at 100 nmol/L incubated for 72 hrs by Annexin V/PI staining based flow cytometry analysis (reference value: 0.46%). In kind it is functional.
Data set [11] concerns MV4-11. The experiment in a line: Induction of apoptosis in human MV4-11 cells assessed as late apoptotic cells at 200 nmol/L incubated for 72 hrs by Annexin V/PI staining based flow cytometry analysis (reference value: 5.14%). It is filed as functional.
Data set [12] relates to MV4-11. The experiment in a line: Induction of apoptosis in human MV4-11 cells assessed as necrotic cells at 200 nmol/L incubated for 72 hrs by Annexin V/PI staining based flow cytometry analysis (reference value: 0.46%). In kind it is functional.
Data set [13] relates to MV4-11. The experiment in a line: Antiproliferative activity against human MV4-11 cells assessed as growth inhibition at 0.2 uM measured after 72 hrs in presence of 0.2 uM of vorinostat by CellTiterGlo assay. As to conditions: read-out: GI. In kind it is functional. Background: In ATP-based viability assays light output follows the ATP content of the culture.
For data set [14], the system named is MV4-11. The experiment in a line: Antiproliferative activity against human MV4-11 cells assessed as growth inhibition at 0.4 uM measured after 72 hrs in presence of 0.4 uM of vorinostat by CellTiterGlo assay. The settings on record: read-out: GI. In kind it is functional.
Data set [15] concerns MV4-11. The experiment in a line: Antiproliferative activity against human MV4-11 cells assessed as growth inhibition at 0.1 uM measured after 72 hrs in presence of 0.5 uM of vorinostat by CellTiterGlo assay. It is filed as functional. The settings on record: read-out: GI.
Data set [16] deals with MV4-11. The experiment in a line: Induction of apoptosis in human MV4-11 cells assessed as late apoptotic cells at 200 nM incubated for 72 hrs by Annexin V/PI staining based flow cytometry analysis (reference value: 6.42%). In kind it is functional.
The test system of data set [17] is MV4-11. The experiment in a line: Antiproliferative activity against human MV4-11 cells assessed as growth inhibition at 1 uM measured after 72 hrs in presence of 0.2 uM of vorinostat by CellTiterGlo assay. It is filed as functional. The settings on record: read-out: GI.
For data set [18], the system named is MV4-11. The experiment in a line: Antiproliferative activity against human MV4-11 cells assessed as growth inhibition at 0.4 uM measured after 72 hrs in presence of 0.5 uM of vorinostat by CellTiterGlo assay. In kind it is functional. The settings on record: read-out: GI.
For data set [19], the system named is MV4-11. The experiment in a line: Antiproliferative activity against human MV4-11 cells assessed as growth inhibition at 0.05 uM measured after 72 hrs in presence of 0.05 uM of vorinostat by CellTiterGlo assay. In kind it is functional. The settings on record: read-out: GI.
In data set [20] the test system is MV4-11. The experiment in a line: Antiproliferative activity against human MV4-11 cells assessed as growth inhibition at 0.05 uM measured after 72 hrs in presence of 0.5 uM of vorinostat by CellTiterGlo assay. It is filed as functional. The settings on record: read-out: GI.
Data set [21] has as its system MV4-11. The experiment in a line: Induction of apoptosis in human MV4-11 cells assessed as viable cells at 400 nM incubated for 72 hrs in presence of vorinostat by Annexin V/PI staining based flow cytometry analysis (reference value: 96.68%). In kind it is functional. As to conditions: read-out: Activity.
In data set [22] the test system is MV4-11. The experiment in a line: Induction of apoptosis in human MV4-11 cells assessed as early apoptotic cells at 400 nM incubated for 72 hrs in presence of vorinostat by Annexin V/PI staining based flow cytometry analysis (reference value: 0.76 %). In kind it is functional.
Data set [23] deals with MV4-11. The experiment in a line: Induction of apoptosis in human MV4-11 cells assessed as viable cells at 200 nM incubated for 72 hrs by Annexin V/PI staining based flow cytometry analysis (reference value: 96.68%). The settings on record: read-out: Activity. It is filed as functional.
For data set [24], the system named is MV4-11. The experiment in a line: Antiproliferative activity against human MV4-11 cells assessed as growth inhibition at 1 uM measured after 72 hrs in presence of 1 uM of vorinostat by CellTiterGlo assay. The settings on record: read-out: GI. In kind it is functional.
For data set [25], the system named is MV4-11. The experiment in a line: Induction of apoptosis in human MV4-11 cells assessed as viable cells at 200 nM incubated for 72 hrs in presence of vorinostat by Annexin V/PI staining based flow cytometry analysis (reference value: 96.68%). In kind it is functional. The settings on record: read-out: Activity.
Data set [26] has as its system MV4-11. The experiment in a line: Antiproliferative activity against human MV4-11 cells assessed as growth inhibition at 0.05 uM measured after 72 hrs in presence of 0.2 uM of vorinostat by CellTiterGlo assay. The settings on record: read-out: GI. In kind it is functional.
Data set [27] has as its system MV4-11. The experiment in a line: Antiproliferative activity against human MV4-11 cells assessed as growth inhibition at 0.2 uM measured after 72 hrs in presence of 0.1 uM of vorinostat by CellTiterGlo assay. In kind it is functional. The settings on record: read-out: GI.

Data on two compounds can be found in ChEMBL document CHEMBL6096706, “Discovery of WDR5-MLL1 and HDAC Dual-Target Inhibitors for the Treatment of Acute Myeloid Leukemia” (J Med Chem, 2025).

Chain of Histone deacetylase 2 (Q92769 whole entry): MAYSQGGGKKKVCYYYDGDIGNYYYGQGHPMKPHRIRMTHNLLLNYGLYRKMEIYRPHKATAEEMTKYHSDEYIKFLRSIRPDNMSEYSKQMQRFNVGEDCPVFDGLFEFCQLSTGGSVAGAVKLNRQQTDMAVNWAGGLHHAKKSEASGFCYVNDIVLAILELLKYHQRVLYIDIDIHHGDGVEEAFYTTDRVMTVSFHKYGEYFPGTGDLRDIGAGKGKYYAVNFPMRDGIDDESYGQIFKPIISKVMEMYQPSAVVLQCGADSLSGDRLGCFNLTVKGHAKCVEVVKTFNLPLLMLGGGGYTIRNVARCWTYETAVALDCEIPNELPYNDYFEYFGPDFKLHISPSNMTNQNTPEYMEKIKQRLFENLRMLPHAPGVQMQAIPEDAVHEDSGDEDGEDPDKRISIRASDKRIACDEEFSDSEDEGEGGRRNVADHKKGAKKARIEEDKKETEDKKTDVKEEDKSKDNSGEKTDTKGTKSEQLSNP

For the compound `Cc1c(F)c(N)cc(C(=O)Nc2cc(-c3ccc(C(=O)NCc4ccc(/C=C/C(=O)NO)cc4)cc3)ccc2N2CCN(C)CC2)c1Cl`, the Activity result in data set [1] was “Non-toxic”; in data set [7], 2.44%; in data set [8], 53.31%; in data set [9] it was “Non-toxic”; in data set [10] it was 1.84%; in data set [11], 6.01%. In addition, the Activity in data set [12] worked out at 0.41%. For the same compound, the IC50 in data set [2] was over 10 µM; in data set [3], 0.696 µM; in data set [4], 5.3 µM; in data set [6] it was 0.042 µM. For the same compound, the viability at 0.2 µM in data set [5] worked out at 40.3%.
As for `Cc1c(F)c(N)cc(C(=O)Nc2cc(-c3ccc(C(=O)N4CCOCC4)cc3)ccc2N2CCN(C)CC2)c1Cl`, the inhibition of growth at 0.2 µM in data set [13] came out at 48%; in [27], 45%. The inhibition of growth at 0.4 µM was 62.6% in [14] and 73.3% in [18]. The inhibition of growth at 0.1 µM in data set [15] was found to be 73.6%. Besides, the Activity in data set [16] stood at 1.08%; in data set [22], 54.05%; in data set [8], 7.36%; in data set [11], 3.51%; in data set [12] it was 0.58%. The figures for the inhibition of growth at 1 µM in [17] and in data set [24] were 61.6% and 94.9%, respectively. In addition, the figures for the inhibition of growth at 0.05 µM in data set [19], in data set [20] and in data set [26] were 30.1%, 73.2% and 46.6%, respectively. In data set [21], the viability at 0.4 µM was 26.1%. In addition, the viability at 0.2 µM in [5] stood at 88.5%; in data set [23] it was 90.3%; in data set [25], 57%.

The term IC50 denotes the concentration needed to halve the response being measured.
